Laboratory results: patent US9890185B2, “Urea derivatives useful as kinase inhibitors” (Respivert Limited, priority 2013, dated 2018)
Where two headings read alike, the source gives them in different places.

Experiments:
c-Src = c-Src (Homo sapiens (Human), UniProt P12931); experiment: c-Src enzyme inhibition (FRET, Z-LYTE); type: biochemical
Procedure: (§1) The enzyme inhibitory activities of compounds disclosed herein are determined by FRET using synthetic peptides labelled with both donor and acceptor fluorophores (Z-LYTE, Invitrogen Ltd., Paisley, UK).
(§2) The inhibitory activities of compounds of the invention against c-Src and Syk enzymes (Invitrogen), are evaluated in a similar fashion to that described hereinabove. The relevant enzyme (3000 ng/mL or 2000 ng/mL respectively, 2.5 μL) is incubated with the test compound (either 4 μg/mL, 0.4 μg/mL, 0.04 μg/mL, or 0.004 μg/mL, 2.5 μL each) for 2 hr at RT. The FRET peptides (8 μM, 2.5 μL), and appropriate ATP solutions (2.5 μL, 800 μM for c-Src, and 60 μM ATP for Syk) are then added to the enzymes/compound mixtures and incubated for 1 hr. Development reagent (protease, 5 μL) is added for 1 hr prior to detection in a fluorescence microplate reader (Varioskan® Flash, ThermoFisher Scientific).
(§3) In all cases, the site-specific protease cleaves non-phosphorylated peptide only and eliminates the FRET signal. Phosphorylation levels of each reaction are calculated using the ratio of coumarin emission (donor) over fluorescein emission (acceptor), for which high ratios indicate high phosphorylation and low ratios indicate low phosphorylation levels. The percentage inhibition of each reaction is calculated relative to non-inhibited control and the 50% inhibitory concentration (IC50 value) is then calculated from the concentration-response curve.

PBMCs = experiment: LPS-induced IL-8 release in PBMC cells (assay b); type: cell-based, human; details: LPS-stimulated PBMCs, read-out: IC50 Values for Inhibition of Cytokine Release, PBMCs IL-8
Summary of the method: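 Cytokines (TNFα, IL-8) in supernatants were quantified by sandwich ELISA after a 24 h challenge with 1 ng/mL E. coli LPS at 37° C, 5% CO2. Healthy-donor PBMCs had been exposed to compound for 2 h beforehand. IC50 values were fitted from the concentration-response curves.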

Syk = Syk (Homo sapiens (Human), UniProt P43405); experiment: Syk enzyme inhibition (FRET, Z-LYTE); type: biochemical
Procedure: as §1, §2, §3

GSK 3α = GSK 3α (Homo sapiens (Human), UniProt P49840); experiment: GSK 3α enzyme inhibition (FRET, Z-LYTE, Method 2); type: biochemical; details: read-out: IC50 Values for Enzyme Inhibition, GSK3α
GSK 3α, sequence (P49840 whole entry): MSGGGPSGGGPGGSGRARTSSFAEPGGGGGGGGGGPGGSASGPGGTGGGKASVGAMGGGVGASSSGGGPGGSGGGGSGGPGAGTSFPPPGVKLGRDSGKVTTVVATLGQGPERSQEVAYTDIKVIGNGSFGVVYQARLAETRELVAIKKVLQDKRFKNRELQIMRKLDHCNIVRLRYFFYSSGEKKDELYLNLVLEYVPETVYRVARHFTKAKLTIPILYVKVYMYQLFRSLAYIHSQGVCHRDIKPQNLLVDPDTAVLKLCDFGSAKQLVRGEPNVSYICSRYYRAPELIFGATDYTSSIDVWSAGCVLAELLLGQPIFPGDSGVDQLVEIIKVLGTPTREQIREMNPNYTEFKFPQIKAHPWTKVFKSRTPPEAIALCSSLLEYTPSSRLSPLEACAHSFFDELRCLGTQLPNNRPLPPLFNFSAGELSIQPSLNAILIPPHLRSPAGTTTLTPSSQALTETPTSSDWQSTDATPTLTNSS
Summary of the method: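 Recombinant human GSK3α was preincubated with compound (stocks 4, 0.4, 0.04 or 0.004 μg/mL) at RT, 2 hr for Method 1 and 105 min for Method 2. FRET peptide (8 μM stock) and ATP (40 μM stock) were added for 1 hr, then protease development for 1 hr. IC50 was taken from concentration–response curves.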

d-U937 cells = experiment: Accumulation of β catenin in d-U937 cells (assay m); type: cell-based, human; details: percentage relative to Reference Compound at 1 μg/mL
Procedure: U937 cells, a human monocytic cell line, are differentiated into macrophage-type cells by incubation with PMA; (100 ng/mL) for between 48 to 72 hr. The cells are then incubated with either final concentrations of test compound or vehicle for 18 hr. The induction of β-catenin by the test compounds is stopped by replacing the media with 4% formaldehyde solution. Endogenous peroxide activity is neutralised by incubating with quenching buffer (100 μL, 0.1% sodium azide, 1% H2O2 in PBS with 0.05% Tween-20) for 20 min. The cells are washed with washing buffer (200 μL; PBS containing 0.05% Tween-20) and incubated with blocking solution (200 μL; 5% milk in PBS) for 1 hr, re-washed with washing buffer (200 μL) and then incubated overnight with anti-β-catenin antibody solution (50 μL) in 1% BSA/PBS (BD, Oxford, UK).
After washing with washing buffer (3×200 μL; PBS containing 0.05% Tween-20), cells are incubated with an HRP-conjugated secondary antibody solution (100 μL) in 1% BSA/PBS (Dako, Cambridge, UK) and the resultant signal is determined colourimetrically (OD: 450 nm with a reference wavelength of 655 nm) using TMB substrate (50 μL; R&D Systems, Abingdon, UK). This reaction is stopped by addition of 1N H2SO4 solution (50 μL). Cells are then washed with washing buffer and 2% crystal violet solution (50 μL) is applied for 30 min. After washing with washing buffer (3×200 μL), 1% SDS (100 μL) is added to each well and the plates are shaken lightly for 1 hr prior to measuring the absorbance at 595 nm (Varioskan® Flash, Thermo-Fisher Scientific).
The measured OD450-655 readings are corrected for cell number by dividing the OD450-655 by the OD595 readings.

[1] = biological target: p38 MAPKα isoform (MAPK14) (Homo sapiens (Human), UniProt Q16539); experiment: p38 MAPKα enzyme inhibition (FRET, Z-LYTE, Method 2); type: biochemical
p38 MAPKα isoform (MAPK14), sequence (Q16539 whole entry, canonical isoform): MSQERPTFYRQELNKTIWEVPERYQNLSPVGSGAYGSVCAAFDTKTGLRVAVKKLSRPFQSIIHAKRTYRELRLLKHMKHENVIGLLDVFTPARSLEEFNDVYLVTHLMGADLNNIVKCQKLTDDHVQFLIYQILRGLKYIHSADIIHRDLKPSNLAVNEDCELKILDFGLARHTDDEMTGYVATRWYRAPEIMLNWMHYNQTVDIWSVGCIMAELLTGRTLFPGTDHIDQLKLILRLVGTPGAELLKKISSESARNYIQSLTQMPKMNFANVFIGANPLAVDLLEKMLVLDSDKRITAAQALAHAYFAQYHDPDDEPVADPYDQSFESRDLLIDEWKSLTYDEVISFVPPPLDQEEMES
Procedure: as §1
The following two assay variants can be used for determination of p38 MAPKα inhibition.
The inhibitory activities of test compounds against the p38 MAPKα isoform (MAPK14: Invitrogen), are evaluated indirectly by determining the level of activation/phosphorylation of the down-stream molecule, MAPKAP-K2. The p38 MAPKα protein (80 ng/mL, 2.5 μL) is mixed with the test compound (2.5 μL of either 4 μg/mL, 0.4 μg/mL, 0.04 μg/mL or 0.004 μg/mL) for 2 hr at RT. […] The mixture is incubated for 1 hr at RT. Development reagent (protease, 5 μL) is added for 1 hr prior to detection in a fluorescence microplate reader (Varioskan® Flash, ThermoFisher Scientific).
This method follows the same steps as Method 1 above, but utilises a higher concentration of the p38 MAPKα protein (2.5 μL of 200 ng/mL protein instead of 2.5 μL of 80 ng/mL protein) for mixing with the test compound.
as §3

c-Src, sequence (P12931 whole entry, looked up): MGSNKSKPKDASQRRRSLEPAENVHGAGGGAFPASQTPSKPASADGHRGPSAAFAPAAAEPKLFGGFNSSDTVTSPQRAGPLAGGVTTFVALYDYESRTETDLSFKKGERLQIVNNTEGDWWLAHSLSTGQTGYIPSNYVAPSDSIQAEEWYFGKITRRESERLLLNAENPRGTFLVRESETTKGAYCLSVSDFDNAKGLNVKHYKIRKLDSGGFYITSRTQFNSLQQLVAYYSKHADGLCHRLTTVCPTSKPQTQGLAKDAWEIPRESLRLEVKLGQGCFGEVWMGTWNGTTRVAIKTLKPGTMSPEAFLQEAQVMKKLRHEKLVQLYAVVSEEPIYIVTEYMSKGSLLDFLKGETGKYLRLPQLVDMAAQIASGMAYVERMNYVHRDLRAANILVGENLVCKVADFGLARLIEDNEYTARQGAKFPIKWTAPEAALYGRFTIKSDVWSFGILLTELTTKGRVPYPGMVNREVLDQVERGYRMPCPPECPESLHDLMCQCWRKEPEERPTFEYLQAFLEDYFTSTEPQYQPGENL

SMILES | IC50 (c-Src) | IC50 (Syk) | IC50 (GSK 3α) | IC50 [1] | IC50 (PBMCs; Homo sapiens, PBMC) | % β-catenin induction (d-U937 cells; test compound 1 μg/mL) | % β-catenin induction (d-U937 cells; test compound 5 μg/mL) | % β-catenin induction (d-U937 cells; test compound 10 μg/mL) | IC50 (PBMCs)
COc1c(CNS(C)(=O)=O)cc(C(C)(C)C)cc1NC(=O)Nc1ccc(Oc2ccnc(Nc3ccccc3)c2)c2ccccc12 [15(aq), N-(5-(tert-butyl)-2-methoxy-3-(3-(4-((2-(phenylamino)pyridin-4-yl)oxy)naphthalen-1-yl)ureido)benzyl)methanesulfonamide] | 160 nM | 1520 nM | 3290 nM | – | 4.4 nM | – | – | – | –
COc1c(NC(=O)Nc2ccc(Oc3ccnc(Nc4ccccc4)n3)c3ccccc23)cc(C(C)(C)C)cc1OCP(C)(C)=O [15(d), 1-(5-(tert-butyl)-3-((dimethylphosphoryl)methoxy)-2-methoxyphenyl)-3-(4-((2-(phenylamino)pyrimidin-4-yl)oxy)naphthalen-1-yl)urea] | 61 nM | 477 nM | 919 nM | – | 6.2 nM | 11.0% | 92.0% | 31.0% | –
COc1cccc(Nc2nccc(Oc3ccc(NC(=O)Nc4cc(C(C)(C)C)cc(P(C)(C)=O)c4OC)c4ccccc34)n2)c1 [15(g), 1-(5-(tert-butyl)-3-(dimethylphosphoryl)-2-methoxyphenyl)-3-(4-((2-((3-methoxy-phenyl)amino)pyrimidin-4-yl)oxy)naphthalen-1-yl)urea] | – | – | 757 nM | – | – | 15.0% | 94.0% | 94.0% | 1.9 nM
COc1c(NC(=O)Nc2ccc(Oc3ccnc(Nc4ccccc4)c3)c3ccccc23)cc(C(C)(C)C)cc1S(C)(=O)=O [15(m), 1-(5-(tert-butyl)-2-methoxy-3-(methylsulfonyl)phenyl)-3-(4-((2-(phenylamino)pyridin-4-yl)oxy)naphthalen-1-yl)urea] | – | – | > 16400 nM | 747 nM | 16 nM | −3.0% | 5.0% | 5.0% | –
COc1cc(Nc2cc(Oc3ccc(NC(=O)Nc4cc(C(C)(C)C)cc(CC(N)=O)c4OC)c4ccccc34)ccn2)cc(C(=O)NCC(CO)(CO)CO)c1 [38(al), 3-((4-((4-(3-(3-(2-Amino-2-oxoethyl)-5-(tert-butyl)-2-methoxyphenyl)ureido)naphthalen-1-yl)oxy)pyridin-2-yl)amino)-N-(3-hydroxy-2,2-bis(hydroxymethyl)propyl)-5-methoxybenzamide] | – | – | 1970 nM | 44 nM | 7.2 nM | – | – | – | –
COCCOCCOCCNC(=O)c1cc(C(C)(C)C)cc(NC(=O)Nc2ccc(Oc3ccnc(Nc4cc(OC)cc(OCCOCCOCCOC)c4)n3)c3ccccc23)c1OC [Example 7, 5-(tert-Butyl)-2-methoxy-3-(3-(4-((2-((3-methoxy-5-(2-(2-(2-methoxyethoxy)ethoxy)ethoxy)-phenyl)amino)pyrimidin-4-yl)oxy)naphthalen-1-yl)ureido)-N-(2-(2-(2-methoxyethoxy)ethoxy)-ethyl)benzamide] | – | 57 nM | 1070 nM | 108 nM | 4.6 nM | – | – | – | –
COCC(=O)Nc1cc(Oc2ccc(NC(=O)Nc3cc(C(C)(C)C)nn3-c3ccc(C)cc3)c3ccccc23)ccn1 [Reference Compound, N-(4-(4-(3-(3-tert-butyl-1-p-tolyl-1H-pyrazol-5-yl)ureido)naphthalen-1-yloxy)pyridin-2-yl)-2-methoxyacetamide, reference compound] | – | – | – | – | – | 100% | – | – | –

Second part, led by results:

IC50 (c-Src) | IC50 (Syk) | IC50 (GSK 3α) | IC50 [1] | SMILES | IC50 (PBMCs; Homo sapiens, PBMC) | % β-catenin induction (d-U937 cells; test compound 1 μg/mL) | % β-catenin induction (d-U937 cells; test compound 5 μg/mL) | % β-catenin induction (d-U937 cells; test compound 10 μg/mL) | IC50 (PBMCs)
17 nM | 5 nM | – | – | COc1cc(Nc2cc(Oc3ccc(NC(=O)Nc4cc(C(C)(C)C)cc([S+](C)[O-])c4OC)c4ccccc34)ccn2)ccc1C(=O)O (centres unmarked) [79(g), 4-((4-((4-(3-(5-(tert-Butyl)-2-methoxy-3-(methylsulfinyl)phenyl)ureido)naphthalen-1-yl)oxy)pyridin-2-yl)amino)-2-methoxybenzoic acid] | 5.3 nM | – | – | – | –
– | – | > 12600 nM | – | CC(C)(C)c1cc(NC(=O)Nc2ccc(Oc3ccnc(Nc4ccccc4)c3)c3ccccc23)c(O)c(P(C)(C)=O)c1 [Example 39, 1-(5-(tert-Butyl)-3-(dimethylphosphoryl)-2-hydroxyphenyl)-3-(4-((2-(phenylamino)pyridin-4-yl)oxy)naphthalen-1-yl)urea] | 31.4 nM | – | – | – | –
– | – | 4260 nM | 284 nM | COc1cc(Nc2cc(Oc3ccc(NC(=O)Nc4cc(C(C)(C)C)cc(OCC(CO)(CO)CO)c4OC)c4ccccc34)ccn2)cc(C(N)=O)c1 [Example 67, 3-((4-((4-(3-(5-(tert-Butyl)-3-(3-hydroxy-2,2-bis(hydroxymethyl)propoxy)-2-methoxyphenyl)ureido)naphthalen-1-yl)oxy)pyridin-24)amino)-5-methoxybenzamide] | 5.6 nM | – | – | – | –
– | – | 1230 nM | – | COc1c(NC(=O)Nc2ccc(Oc3ccnc(Nc4cc(C)c5[nH]ncc5c4)n3)c3ccccc23)cc(C(C)(C)C)cc1[S+](C)[O-] (centres unmarked) [Example 74, 1-(5-(tert-Butyl)-2-methoxy-3-(methylsulfinyl)phenyl)-3-(4-((2-((7-methyl-1H-indazol-5-yl)amino)pyrimidin-4-yl)oxy)naphthalen-1-yl)urea] | 1.6 nM | – | – | – | –
– | – | 70 nM | – | COc1cc(Nc2cc(Oc3ccc(NC(=O)Nc4cc(C(C)(C)C)cc(P(C)(C)=O)c4OC)c4ccccc34)ccn2)ccc1C(=O)O [Example 76, 4-((4-((4-(3-(5-(tert-Butyl)-3-(dimethylphosphoryl)-2-methoxyphenyl)ureido)naphthalen-1-yl)oxy)pyridin-2-yl)amino)-2-methoxybenzoic acid] | 41.5 nM | – | – | – | –
– | – | 773 nM | – | CNC(=O)c1cc(CN2CCN(C)CC2)cc(Nc2cc(Oc3ccc(NC(=O)Nc4cc(C(C)(C)C)cc(P(C)(C)=O)c4OC)c4ccccc34)ccn2)c1 [Example 78, 3-((4-((4-(3-(5-(tert-Butyl)-3-(dimethylphosphoryl)-2-methoxyphenyl)ureido)naphthalen-1-yl)oxy)pyridin-2-yl)amino)-N-methyl-5-((4-methylpiperazin-1-yl)methyl)benzamide] | 23 nM | – | – | – | –
